Data reported in US12570638B2, “Fused imidazole derivatives as AHR antagonists” (Sail Biomedicines, Inc., priority 2020, dated 2026).
In brackets after ≈: the same amount, converted by molar mass. Where two headings read alike, the source gives them in different places.

How the values were obtained:
AHR = target: T1, AHR (Homo sapiens, UniProt P35869); experiment: DRE-Luciferase Reporter Assay (HepG2 AhR-Lucia reporter cells); format: cell-based; conditions: luciferase activity with AHR activating ligand at EC50, read-out: HepG2-Luc IC50
T1 construct: other cell line with a DRE-luciferase reporter stably transfected; endogenous in cells; host or cells: Human HepG2 liver carcinoma AhR-Lucia reporter cells
T1 sequence (P35869 11-848): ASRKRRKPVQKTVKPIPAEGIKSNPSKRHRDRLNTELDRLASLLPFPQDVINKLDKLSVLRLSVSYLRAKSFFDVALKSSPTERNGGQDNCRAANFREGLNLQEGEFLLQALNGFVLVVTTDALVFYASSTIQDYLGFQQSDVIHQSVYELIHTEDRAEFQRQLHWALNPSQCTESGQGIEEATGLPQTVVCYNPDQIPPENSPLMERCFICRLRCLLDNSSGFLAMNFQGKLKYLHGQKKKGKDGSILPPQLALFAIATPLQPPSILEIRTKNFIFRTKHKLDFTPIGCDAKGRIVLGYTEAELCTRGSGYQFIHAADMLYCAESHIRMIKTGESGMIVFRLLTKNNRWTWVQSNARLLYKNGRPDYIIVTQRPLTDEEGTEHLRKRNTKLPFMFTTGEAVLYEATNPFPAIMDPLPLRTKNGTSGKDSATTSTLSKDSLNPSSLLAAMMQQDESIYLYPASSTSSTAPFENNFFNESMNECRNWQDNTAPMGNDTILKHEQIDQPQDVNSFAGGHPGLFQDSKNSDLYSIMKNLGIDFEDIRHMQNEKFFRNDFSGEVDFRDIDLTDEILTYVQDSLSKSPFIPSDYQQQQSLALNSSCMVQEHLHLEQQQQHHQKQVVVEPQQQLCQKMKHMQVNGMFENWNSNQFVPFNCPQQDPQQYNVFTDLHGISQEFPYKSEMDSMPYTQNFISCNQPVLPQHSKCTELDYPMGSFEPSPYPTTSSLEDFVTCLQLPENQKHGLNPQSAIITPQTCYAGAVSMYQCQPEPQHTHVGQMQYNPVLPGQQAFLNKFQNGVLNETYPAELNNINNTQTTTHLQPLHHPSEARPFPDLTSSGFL
Description: AHR binds to Dioxin Responsive Elements (DRE) upstream of genes that it activates. One measure of AHR activity is activation of a reporter gene, such as luciferase, downstream of one or multiple DRE elements. Luciferase activity will reflect activation and inhibition of AHR in the cells expressing his reporter. 20000 Human HepG2 liver carcinoma—AhR-Lucia reporter cells or Human HT29 colon adenocarcinoma—AhR reporter cells or other cell line with a DRE-luciferase reporter stably transfected were plated in Eagle's Minimal Essential Medium, 10% heat-inactivated FBS, 1× non-essential amino acids Pen-Strep (10,000 U/mL) and Normocin (100 ug/mL) in plates (96-well, 384-well or other plates) and incubated overnight at 37° C. in a CO2 incubator and treated with and without AhR antagonists at a log dilution starting at 100 uM.
After 1 hr that cells were plated an AHR activating ligand, such as TCDD, kynurenine, ITE (2-(1H-indole-3-ylcarbonyl)-4-thiazolecarboxylic methyl ester), VAF347, BNF (beta-naphthoflavone), FICZ (6-formylindolo(3,2-b) carbazole) or other AHR ligands at their specific EC50 concentration, were added to the cells with or without AHR antagonist.
Cells were incubated for 24 or 48 hours or another time point and then, supernatant was analyzed for determination of luciferase activity as a read-out of the AHR activation or inhibition. Luciferase was measured with the commercial kit QUANTI-Luc™ assay solution kit from Invivogen following the manufacturer's instructions.
The level of luciferase with only agonist ligand added was the maximum signal while the luciferase with […] was the minimum signal. IC50 values were determined as the concentration which inhibits half of the luciferase activity.

[1] = Solubility Determination Assay (PBS, LC-MS/MS); format: physicochemical; conditions: aqueous buffer, kinetic from dmso stock
Procedure: The stock solutions of test compounds and control compound progesterone were prepared in DMSO at the concentrations of 10 mM. 15 μL of stock solution (10 mM) of each sample was placed in order into their proper 96-well rack. 485 μL of PBS pH 1.6 and pH 7.4 were added into each vial of the cap-less Solubility Sample plate. The assay was performed in singlet. One stir stick was added to each vial and then the vial was sealed using a molded PTFE/Silicone plug. […] After completion of the 2 hours, plugs were removed and the stir sticks were removed using a big magnet. The samples from the Solubility Sample plate were transferred into the filter plate. Using the Vacuum Manifold, all the samples were filtered. An aliquot of 5 μL was taken from the filtrate followed by addition of 495 μL of a mixture of H2O and acetonitrile containing internal standard (1:1). A certain proportion of ultrapure water was used to dilute the diluent according to the peak shape. The dilution factor was changed according to the solubility values and the LC-MS signal response.
From the 10 mM DMSO STD plate, 6 μL was transferred into the remaining empty plate, and then 194 μL of DMSO were added to that plate to have a STD concentration of 300 μM. From the 300 μM DMSO STD plate, 5 μL were transferred into the remaining empty plate, and then 495 μL of a mixture of H2O and acetonitrile containing internal standard (1:1) were added to that plate to have a final STD concentration of 3 μM. A certain proportion of ultrapure water was used to dilute the diluent according to the peak shape. The concentrations of the standard samples were changed according to the LC-MS signal response.
The plate was placed into the well plate autosampler. The samples were evaluated by LC-MS/MS analysis.
All calculations were carried out using Microsoft Excel.
The filtrate was analyzed and quantified against a standard of known concentration using LC coupled with mass spectral peak identification and quantitation. Solubility values of the test compound and control compound were calculated as follows: […]
Any value of the compounds that was not within the specified limits was rejected and the experiment was repeated.
“+++” indicates a solubility value equal to or greater than 10 μM, “++” indicates a solubility value between 1 and 10 μM, and “+” indicates a solubility value less than 1 μM.

[2] = Liver Microsome Stability Assay, human; format: in vitro ADME; conditions: human liver microsomes, with NADPH, 1 μM compound, read-out: Human liver microsome clearance
Procedure: The master solution was prepared according to Table 6.
Two separate experiments were performed as follows.
With Cofactors (NADPH): 25 μL of 10 mM NADPH was added to the incubations. The final concentrations of microsomes and NADPH were 0.5 mg/mL and 1 mM, respectively. The final concentration of microsomes was 0.5 mg/mL. The mixture was pre-warmed at 37° C. for 10 minutes. The reaction was started with the addition of 2.5 μL of 100 μM control compound or test compound solutions. Verapamil was used as positive control in this study. The final concentration of test compound or control compound was 1 μM. The incubation solution was incubated in water batch at 37° C. Aliquots of 25 μL were taken from the reaction solution at 0.5, 5, 15, 30 and 60 minutes. The reaction was stopped by the addition of 5 volumes of cold acetonitrile with IS (200 nM caffeine and 100 nM tolbutamide). Samples were centrifuged at 3, 220 g for 40 minutes. Aliquot of 100 μL of the supernatant was mixed with 100 μL of ultra-pure H2O and then used for LC-MS/MS analysis.
Data Analysis: All calculations were carried out using Microsoft Excel. Peak areas were determined from extracted ion chromatograms. The slope value, k, was determined by linear regression of the natural logarithm of the remaining percentage of the parent drug vs. incubation time curve.
The in vitro half-life (in vitro t1/2) was determined from the slope value: in vitro t1/2=−([…]/k)
Conversion of the in vitro t1/2 (min) into the in vitro intrinsic clearance (in vitro CLint, in μL/min/mg protein) was done using the following equation (mean of duplicate determinations):
The calculations of Scaled-up CLint (mL/min/kg), Predicted CLH (mL/min/kg) and EH were done using the following equation: Scaled-up CLint=(0.693/t1/2)×(1/(microsomal protein concentration(0.5 mg/mL)))×Scaling Factors; Predicted CLH=(QH×Scaled-up CLint×fub)/(QH+Scaled-up CLint×fub); EH=Predicted CLH/QH • where QH is the hepatic blood flow (mL/min/kg) (Table 7), • fub is the fraction of unbound drug in plasma which is assumed to be 1. […]

[3] = PBS pH 1.6, 25° C., read-out: Aq. Solubility at pH = 1.6
[4] = PBS pH 7.4, 25° C., read-out: Aq. Solubility at pH = 7.4

Compound	IC50 (AHR) [nM]	solubility at 2 h [1, 3] [µM]	solubility at 2 h [1, 4] [µM]	CLint scaled at 1 μM [2] [mL/min/kg]
Cc1ccccc1-c1nc2ccc(NC(=O)c3ccnn3C)cc2[nH]1 [B, 1-methyl-N-(2-(o-tolyl)-1H-benzo[d]imidazol-6-yl)-1H-pyrazole-5-carboxamide]	100 to 500			
Cn1nccc1C(=O)Nc1ccc2nc(-c3ccccc3C(F)F)[nH]c2c1 [Compound C, N-(2-(2-(difluoromethyl)phenyl)-1H-benzo[d]imidazol-6-yl)-1-methyl-1H-pyrazole-5-carboxamide]	100 to 500	> 10	1 to 10 (≈ 0.367 to 3.67 µg/mL)	< 10
Cc1ccccc1-c1nc2ccc(NC(=O)c3ncnn3C)cc2[nH]1 [G, 1-methyl-N-(2-(o-tolyl)-1H-benzo[d]imidazol-6-yl)-1H-1,2,4-triazole-5-carboxamide]	100 to 500			
Cn1ncnc1C(=O)Nc1ccc2nc(-c3ccccc3C(F)F)[nH]c2c1 [D, N-(2-(2-(difluoromethyl)phenyl)-1H-benzo[d]imidazol-6-yl)-1-methyl-1H-1,2,4-triazole-5-carboxamide]	< 100	> 10	1 to 10 (≈ 0.368 to 3.68 µg/mL)	
